From ChEMBL document CHEMBL4382194, “New Modalities, Technologies, and Partnerships in Probe and Lead Generation: Enabling a Mode-of-Action Centric Paradigm” (J Med Chem, 2018)
Blank lines part the entries; values can stand above or below the molecule they belong to. Numbered stars: 1 amine (or outer) side, 2 acyl side, 3 side chain; on linkers, the order of the positions; unused ones are H or OH. Bridge positions count the residues as written; N and C are the ends. Peptide text beside a SMILES is read from it. TBMB = c1c(C[*:1])cc(C[*:3])cc1C[*:2]

Assays:
[1] = molecular target: T1, Epidermal growth factor receptor substrate 15 (Homo sapiens, UniProt P42566); experiment: Inhibition of stonin-2 binding to Eps15 (unknown origin)
T1 sequence (P42566 whole entry): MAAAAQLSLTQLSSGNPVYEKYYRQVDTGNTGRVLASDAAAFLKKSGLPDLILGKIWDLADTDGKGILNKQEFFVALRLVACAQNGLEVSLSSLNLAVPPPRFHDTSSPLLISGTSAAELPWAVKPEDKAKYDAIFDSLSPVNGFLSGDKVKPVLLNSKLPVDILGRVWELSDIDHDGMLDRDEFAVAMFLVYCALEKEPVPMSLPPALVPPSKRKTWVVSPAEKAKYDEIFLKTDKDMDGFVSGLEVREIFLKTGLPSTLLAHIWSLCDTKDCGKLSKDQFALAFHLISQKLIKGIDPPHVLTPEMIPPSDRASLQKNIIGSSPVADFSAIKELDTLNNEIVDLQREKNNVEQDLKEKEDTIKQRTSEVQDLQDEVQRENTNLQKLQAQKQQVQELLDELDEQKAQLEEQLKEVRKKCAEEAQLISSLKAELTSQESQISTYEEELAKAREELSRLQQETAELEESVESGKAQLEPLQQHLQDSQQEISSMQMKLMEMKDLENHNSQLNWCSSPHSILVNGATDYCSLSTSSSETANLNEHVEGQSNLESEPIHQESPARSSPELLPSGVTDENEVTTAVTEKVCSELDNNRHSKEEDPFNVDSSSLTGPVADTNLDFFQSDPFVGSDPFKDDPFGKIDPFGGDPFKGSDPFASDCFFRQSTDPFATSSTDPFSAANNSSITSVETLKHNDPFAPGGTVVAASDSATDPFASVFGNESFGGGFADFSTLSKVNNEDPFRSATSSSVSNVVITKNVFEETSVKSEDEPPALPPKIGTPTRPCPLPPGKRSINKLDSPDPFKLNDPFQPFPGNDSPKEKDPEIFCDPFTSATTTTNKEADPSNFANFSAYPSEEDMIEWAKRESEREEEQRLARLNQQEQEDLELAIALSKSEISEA

[2] = organism: Homo sapiens; experiment: Selectivity ratio of Ki for human MC1R expressed in HEK cell membranes to Ki for human MC4R expressed in HEK cell membranes; type: cell-based
[3] = organism: Homo sapiens; experiment: Selectivity ratio of Ki for human MC2R expressed in HEK cell membranes to Ki for human MC4R expressed in HEK cell membranes; type: cell-based
[4] = organism: Homo sapiens; experiment: Selectivity ratio of Ki for human MC5R expressed in HEK cell membranes to Ki for human MC4R expressed in HEK cell membranes; type: cell-based
[5] = molecular target: Plasma kallikrein (Homo sapiens, UniProt P03952); experiment: Binding affinity to human plasma kallikrein
[6] = molecular target: 80S Ribosome; experiment: Inhibition of human 80S ribosome-mediated PCSK9 translation expressed in CHO-K1 cells assessed as reduction in PCSK9 secretion; type: cell-based
[7] = Modulation of full length SMN2 mRNA (unknown origin) splicing by luciferase reporter gene assay; set-up: species or system Homo sapiens

Plasma kallikrein, sequence (P03952 20-390 limits assumed): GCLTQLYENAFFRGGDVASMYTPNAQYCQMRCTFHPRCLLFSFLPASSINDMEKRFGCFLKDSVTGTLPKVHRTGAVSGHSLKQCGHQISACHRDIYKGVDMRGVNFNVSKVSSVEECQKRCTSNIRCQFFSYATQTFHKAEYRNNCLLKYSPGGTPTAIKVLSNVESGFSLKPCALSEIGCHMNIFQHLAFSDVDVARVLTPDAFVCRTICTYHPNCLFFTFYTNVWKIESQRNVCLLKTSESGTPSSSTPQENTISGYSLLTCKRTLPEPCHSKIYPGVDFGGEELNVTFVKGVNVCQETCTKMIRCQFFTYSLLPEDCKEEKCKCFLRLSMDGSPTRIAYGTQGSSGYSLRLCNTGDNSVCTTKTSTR
Plasma kallikrein, sequence (P03952 391-638 limits assumed): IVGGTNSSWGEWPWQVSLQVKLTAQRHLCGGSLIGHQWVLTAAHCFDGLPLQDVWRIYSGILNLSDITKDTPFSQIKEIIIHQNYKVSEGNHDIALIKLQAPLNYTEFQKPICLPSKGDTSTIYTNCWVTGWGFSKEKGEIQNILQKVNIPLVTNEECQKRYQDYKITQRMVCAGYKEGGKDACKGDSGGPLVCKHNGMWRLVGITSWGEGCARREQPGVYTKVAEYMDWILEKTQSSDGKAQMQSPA

SMILES: CC(C)C[C@@H]1NC(=O)CNC(=O)[C@H](CC(N)=O)NC(=O)[C@H](CCCNC(=N)N)NC(=O)[C@H]([C@@H](C)O)NC(=O)[C@@H]2CSSC[C@@H]3NC(=O)[C@H]([C@@H](C)O)NC(=O)CNC(=O)CNC(=O)[C@H](C(C)C)NC(=O)[C@@H]4CSSC[C@H](NC(=O)[C@H]([C@@H](C)O)NC(=O)[C@H](CSSC[C@H](NC(=O)[C@H](C(C)C)NC(=O)[C@@H]5CCCN5C1=O)C(=O)NCC(=O)N[C@@H](CCC(=O)O)C(=O)N[C@@H]([C@@H](C)O)C(=O)N4)NC(=O)CNC(=O)[C@@H]1CCCN1C(=O)[C@H]([C@@H](C)O)NC(=O)[C@H](CC(N)=O)NC3=O)C(=O)N[C@@H](CO)C(=O)N[C@@H](Cc1c[nH]c3ccccc13)C(=O)N1CCC[C@H]1C(=O)N[C@@H](C(C)C)C(=O)N2
Ratio Ki [2]: 100 to 300 | Ratio Ki [3]: 100 to 300 | Ratio Ki [4]: 100 to 300

SMILES: CC(C)C[C@@H]1NC(=O)[C@H](C)NC(=O)[C@H](CCC(=O)O)NC(=O)[C@H](CC(=O)O)NC(=O)[C@H](C)NC(=O)[C@@H]2CCCN2C(=O)[C@@H]2CSCc3cc(cc(c3)CSC[C@@H](C(=O)NCC(=O)O)NC1=O)CSC[C@H](NC(=O)[C@H](C)N)C(=O)N[C@@H](CO)C(=O)N[C@@H](CC(=O)O)C(=O)N[C@@H](CCCNC(=N)N)C(=O)N[C@@H](Cc1ccccc1)C(=O)N[C@@H](CCCNC(=N)N)C(=O)N[C@@H](CC(N)=O)C(=O)N2 (H-ACSDRFRNCPADEALCG-OH; linker 2-9-16 via TBMB)
Kd [5]: 20 nM

SMILES: CN(c1ccc(-c2ccc(-c3cn[nH]c3)cc2O)nn1)C1CC(C)(C)NC(C)(C)C1
EC50 [7]: 5 nM

The next lines start with the values.

Kd [1]: 370 nM
SMILES: C[C@@H]1NC(=O)[C@H](CCCNC(=N)N)NC(=O)[C@H](Cc2c[nH]c3ccccc23)NC(=O)[C@@H]2CCCN2C(=O)[C@H](N)CSCc2cccc(c2)CSC[C@@H](C(=O)O)NC(=O)[C@H](Cc2ccccc2)NC(=O)[C@@H]2CCCN2C(=O)[C@H](CC(N)=O)NC(=O)[C@H]([C@@H](C)O)NC1=O

EC50 [6]: 2200 nM
SMILES: COc1ccc(CCC(=O)N(c2nccc3c2CC=CC3)[C@@H]2CCCNC2)cc1
